This passage reports LD50 and ED50 results from US4728649A, “3-oxo-piperazin-1-yl-ergolines exhibiting antidopaminergic activity” (Farmitalia Carlo Erba, priority 1985, dated 1988).

Series [1] is described as follows: Orientative acute toxicity (Irwin's observational assessment of mouse behavior, 7 days observation). As to conditions: in vivo, po, after 7 days observation. The text has this: (§1) Profiles of the central sedative pharmacological activity were obtained by Irwin's observational assessment of mouse behavior (Irwin, S.--Psychopharmacologia, Berl., 13, 222, 1968), which also gives an indication of the orientative acute toxicity after 7 days observation, and by antagonism to the central apomorphine-induced stereotypes (climbing) in mice.

The test system of series [2] is central apomorphine-induced climbing. Nature of the series: Antagonism to central apomorphine-induced climbing (stereotypes) in mice. In kind it is in vivo. The note with it: Mus musculus, po; male mice; 60 minutes before 1 mg/kg s.c. apomorphine HCl; evaluated 10 minutes after apomorphine.
Description: as §1
For the antagonism to central apomorphine-induced climbing (Protais, P. et al.--Psychopharmacology, 50, 1, 1976), the compounds were orally administered to male mice, in a dose range between 0.25 and 10 mg/kg, 60 minutes before the subcutaneous injection of 1 mg/kg of apomorphine HCl. The antagonism to apormorphine-induced climbing behavior was evaluated 10 minutes after apomorphine administration.

Regarding `CN1C[C@H](CN2CC(=O)NC(=O)C2)C=C2c3cccc4[nH]cc(c34)C[C@H]21` [Example 5, 6-Methyl-9,10-didehydro-8β-(3,5-dioxo-piperazin-1-ylmethyl)-ergoline], in series [1], the LD50 at 168 h came to 200 mg/kg. Further, in series [2], the ED50 was 0.5 mg/kg.

Compound `CN1C(=O)CN(C[C@@H]2C[C@@H]3c4cccc5[nH]cc(c45)C[C@H]3N(C)C2)CC1=O` [Example 3, 6-Methyl-8β-(3,5-dioxo-4-methyl-piperazin-1-ylmethyl)-ergoline] yielded an LD50 at 168 h in series [1] of 300 mg/kg. The same compound returned an ED50 in series [2] of 2.2 mg/kg.

In series [1], `CN1C[C@H](CN2CC(=O)NC(=O)C2)C[C@@H]2c3cccc4c3c(cn4C)C[C@H]21` [Example 2, 1,6-Dimethyl-8β-(3,5-dioxo-piperazin-1-ylmethyl)-ergoline] came in with an LD50 at 168 h of 300 mg/kg. Further, in series [2], it took a dose of 0.9 mg/kg to reach the 50% effect level (ED50).

`CN1C[C@H](CN2CC(=O)NC(=O)C2)C[C@@H]2c3cccc4[nH]cc(c34)C[C@H]21` [Example 1, 6-Methyl-8β-(3,5-dioxo-piperazin-1-ylmethyl)-ergoline] came in with a 50% lethal dose (LD50) at 168 h in series [1] of 600 mg/kg. The compound further showed an ED50 in series [2] of 4.4 mg/kg.
